Data: patent US20230109839A1, “THERAPEUTIC AGENT FOR TAUOPATHIES” (SUMITOMO PHARMA CO., LTD., priority 2020, published 2023)

Molecular target: T1, human Nav1.1 (Homo sapiens, UniProt P35498)
T1 construct: host or cells: HEK293
Test: Amplification of Nav1.1-derived voltage-gated sodium current (Nav1.1 current), automated patch clamp (Test 1)
Format: cell-based
Details: HEK293 cell line stably expressing human Nav1.1
Experimental: Test 1: Evaluation of the Amplification of Nav1.1-Derived Voltage-Gated Sodium Current (Nav1.1 Current) by Using a Cell Line Stably Expressing Human Nav1.1
(1) Preparation of Test Compound Solution
Test compounds were prepared by dissolving in DMSO at 200 times of the concentration at evaluation, and diluting the obtained solution to twice the concentration of evaluation with an extracellular fluid (135 mmol/L NaCl, 4 mmol/L KCl, 1 mmol/L MgCl2, 5 mmol/L CaCl2, 5 mmol/L Glucose, 10 mmol/L HEPES).
(2) Induction and Measurement of Nav1.1 Current
A HEK293 cell line stably expressing human Nav1.1 (cat #CYL3009, Eurofins DiscoverX Products, LLC, Human Embryonic Kidney 293) was purchased, and used in the present test. Nav1.1 current was induced by stimulating Ramp wave voltage. Detection of current which accompanied with the stimulation of voltage was carried out by a patch-clamp voltage-clamp method using HTS automated patch clamp system (SynchroPatch 768PE, Nanion Technologies GmbH, Germany). Only cells with more than 500 pA of voltage-gated sodium channel current were used for the evaluation of the activity of compounds on Nav1.1 current because there was the possibility that currents derived from endogenous voltage-gated sodium channels accounted for large proportion in cells with less than 500 pA of voltage-gated sodium channel current which was induced by stimulating Ramp wave voltage.
(3) Pharmacological Effect on Nav1.1 Current
The effect of test compounds on the amplification of Nav1.1-derived voltage-gated sodium current was evaluated by using a cell line stably expressing human Nav1.1 and HTS automated patch clamp system. In other words, test compounds were added in an extracellular fluid containing 1% DMSO, and evaluated as a change of the peak value of Nav1.1 current and the area under the curve (AUC).
(4) Method for Pharmacological Evaluation
The Nav1.1 current amplification rates of test compounds were calculated by the following formula:
Nav1.1 current amplification rate (%)=100×[the peak value of Nav1.1 current or the area under the curve after the addition of test compounds]/[the peak value of Nav1.1 current or the area under the curve before the addition of test compounds]−100

[1] = Concentration for evaluation 10 μM
[2] = Concentration for evaluation 3 μM
[3] = Concentration for evaluation 1 μM
[4] = Concentration for evaluation 50 μM

Row | Nav1.1 current amplification rate (%) [2] | Nav1.1 current amplification rate (%) [3] | Structure (SMILES) | further results
1 | – | – | CC1CC=C(c2ccc(=O)n(CC(=O)Nc3cccc4nccn34)n2)CC1 (centres unmarked) [Example 255] | Nav1.1 current amplification rate (%) [1]: 32%
2 | – | – | CC1CC=C(c2ccc(=O)n(CC(=O)N3CCC(c4ccccc4)CC3)n2)CC1 (centres unmarked) [Example 256] | Nav1.1 current amplification rate (%) [1]: 36%
3 | 45% | – | CC1CC=C(c2ccc(=O)n(CC(=O)N3CC=C(c4ccccc4)CC3)n2)CC1 (centres unmarked) [Example 257] | –
4 | 79% | – | CC1CC=C(c2ccc(=O)n(CC(=O)N3CCN(c4ccccc4)CC3)n2)CC1 (centres unmarked) [Example 258] | –
5 | – | – | CC1CC=C(c2ccc(=O)n(CC(=O)N3CCC(c4ccncc4)CC3)n2)CC1 (centres unmarked) [Example 259] | Nav1.1 current amplification rate (%) [1]: 71%
6 | – | – | CC1CC=C(c2ccc(=O)n(CC(=O)N3CCC(c4ccccn4)CC3)n2)CC1 (centres unmarked) [Example 260] | Nav1.1 current amplification rate (%) [1]: 13%
7 | – | – | CC1CC=C(c2ccc(=O)n(CC(=O)N3CCN(c4ccncc4)CC3)n2)CC1 (centres unmarked) [Example 261] | Nav1.1 current amplification rate (%) [1]: 60%
8 | – | – | CC1CC=C(c2ccc(=O)n(CC(=O)N3CCC(c4cccnc4)CC3)n2)CC1 (centres unmarked) [Example 262] | Nav1.1 current amplification rate (%) [1]: 124%
9 | – | – | CC1CC=C(c2ccc(=O)n(CC(=O)N3CCN(c4cncc(F)c4)CC3)n2)CC1 (centres unmarked) [Example 263] | Nav1.1 current amplification rate (%) [1]: 342%
10 | 597% | – | Cc1ncc(-c2cccc3c2CCN3C(=O)Cn2nc(C3=CCC(C)CC3)ccc2=O)cn1 (centres unmarked) [Example 264] | –
11 | 110% | – | CC1CC=C(c2ccc(=O)n(CC(=O)N3CCc4c(C5=CCNC5)cccc43)n2)CC1 (centres unmarked) [Example 265] | –
12 | 108% | – | CC1CC=C(c2ccc(=O)n(CC(=O)N3CCc4c(CO)cccc43)n2)CC1 (centres unmarked) [Example 266] | –
13 | 231% | – | CC1CC=C(c2ccc(=O)n(CC(=O)N3CCc4c(C5=CCN(C)C5)cccc43)n2)CC1 (centres unmarked) [Example 267] | –
14 | 55% | – | CC1CC=C(c2ccc(=O)n(CC(=O)N3CCc4c(C5CCNC5)cccc43)n2)CC1 (centres unmarked) [Example 268] | –
15 | 127% | – | CC1CC=C(c2ccc(=O)n(CC(=O)N3CCc4c(C5CCN(C)C5)cccc43)n2)CC1 (centres unmarked) [Example 269] | –
16 | 481% | – | CC1CC=C(c2ccc(=O)n(CC(=O)N3CCc4c(CN5CCOCC5)cccc43)n2)CC1 (centres unmarked) [Example 270] | –
17 | 48% | – | CC1CC=C(c2ccc(=O)n(CC(=O)N3CCc4c(CN5CCCC5)cccc43)n2)CC1 (centres unmarked) [Example 271] | –
18 | – | 127% | CO[C@H]1CCN(Cc2cccc3c2CCN3C(=O)Cn2nc(C3=CCC(C)CC3)ccc2=O)C1 (some centres unmarked) [Example 272] | –
19 | – | 77% | CO[C@@H]1CCN(Cc2cccc3c2CCN3C(=O)Cn2nc(C3=CCC(C)CC3)ccc2=O)C1 (some centres unmarked) [Example 273] | –
20 | – | 60% | COC1CN(Cc2cccc3c2CCN3C(=O)Cn2nc(C3=CCC(C)CC3)ccc2=O)C1 (centres unmarked) [Example 274] | –

Row | Nav1.1 current amplification rate (%) [2] | Nav1.1 current amplification rate (%) [3] | Structure (SMILES) | further results
21 | – | 46% | COCCN(C)Cc1cccc2c1CCN2C(=O)Cn1nc(C2=CCC(C)CC2)ccc1=O (centres unmarked) [Example 275] | –
22 | – | 207% | CC1CC=C(c2ccc(=O)n(CC(=O)N3CCc4c(CN(C)C5COC5)cccc43)n2)CC1 (centres unmarked) [Example 276] | –
23 | – | 210% | CC1CC=C(c2ccc(=O)n(CC(=O)N3CCc4c3cccc4C(C)(C)O)n2)CC1 (centres unmarked) [Example 277] | –
24 | – | 10% | CC1CC=C(c2ccc(=O)n(CC(=O)N3CCc4c3ccnc4C3=CCN(C(=O)OC(C)(C)C)C3)n2)CC1 (centres unmarked) [Example 280] | –
25 | – | – | CC1CC=C(c2ccc(=O)n(CC(=O)N3CCc4c3ccnc4C3=CCNC3)n2)CC1 (centres unmarked) [Example 281] | Nav1.1 current amplification rate (%) [1]: 40%
26 | – | 26% | CC1CC=C(c2ccc(=O)n(CC(=O)N3CCc4c(CN5CCCCC5)cccc43)n2)CC1 (centres unmarked) [Example 282] | –
27 | – | 15% | CC1CC=C(c2ccc(=O)n(CC(=O)N3CCc4c3ccnc4C3=CCN(C)C3)n2)CC1 (centres unmarked) [Example 283] | –
28 | – | 91% | CC1CC=C(c2ccc(=O)n(CC(=O)N3CCc4c3ccnc4C3=CCOC3)n2)CC1 (centres unmarked) [Example 284] | –
29 | – | 113% | CC1CC=C(c2ccc(=O)n(CC(=O)N3CCc4c3ccnc4-c3cn[nH]c3)n2)CC1 (centres unmarked) [Example 285] | –
30 | – | 848% | CC1CC=C(c2ccc(=O)n(CC(=O)N3CCc4c(Cn5ccnc5)cccc43)n2)CC1 (centres unmarked) [Example 286] | –
31 | – | 73% | CC1CC=C(c2ccc(=O)n(CC(=O)N3CCc4c(CN5CC=CC5)cccc43)n2)CC1 (centres unmarked) [Example 287] | –
32 | – | 115% | Cc1cn(Cc2cccc3c2CCN3C(=O)Cn2nc(C3=CCC(C)CC3)ccc2=O)cn1 (centres unmarked) [Example 288] | –
33 | – | – | CC1CC=C(c2ccc(=O)n(CC(=O)N3CCc4nc(-c5cn[nH]c5)ccc43)n2)CC1 (centres unmarked) [Example 289] | Nav1.1 current amplification rate (%) [4]: 51%
34 | 94% | – | CC1CC=C(c2ccc(=O)n(CC(=O)N3CCOc4c(-c5cn[nH]c5)cccc43)n2)CC1 (centres unmarked) [Example 290] | –
35 | – | – | CC1CC=C(c2ccc(=O)n(CC(=O)N3CCc4c(-c5cc[nH]n5)ccnc43)n2)CC1 (centres unmarked) [Example 291] | Nav1.1 current amplification rate (%) [4]: 212%
36 | – | 46% | CC1CC=C(c2ccc(=O)n(CC(=O)N3CCc4c(-c5cc[nH]n5)ccc(F)c43)n2)CC1 (centres unmarked) [Example 292] | –
37 | – | – | CC1CC=C(c2ccc(=O)n(CC(=O)N3CCc4c(C=C5CCNCC5)cccc43)n2)CC1 (centres unmarked) [Example 293] | Nav1.1 current amplification rate (%) [4]: 55%
38 | – | 271% | CC1CC=C(c2ccc(=O)n(CC(=O)N3CCc4c(Cn5cncn5)cccc43)n2)CC1 (centres unmarked) [Example 294] | –
39 | – | 95% | CC1CC=C(c2ccc(=O)n(CC(=O)N3CCc4c3ccc(F)c4-c3ccnnc3)n2)CC1 (centres unmarked) [Example 295] | –
40 | – | 87% | CC1CC=C(c2ccc(=O)n(CC(=O)N3CCc4c3ccnc4C3=CCOCC3)n2)CC1 (centres unmarked) [Example 296] | –

Row | Nav1.1 current amplification rate (%) [2] | Nav1.1 current amplification rate (%) [3] | Structure (SMILES) | further results
41 | – | 151% | CC1CC=C(c2ccc(=O)n(CC(=O)N3CCc4c3ccnc4-c3cccnc3)n2)CC1 (centres unmarked) [Example 297] | –
42 | – | 51% | CC1CC=C(c2ccc(=O)n(CC(=O)N3CCc4cc(-c5cccnc5)ccc43)n2)CC1 (centres unmarked) [Example 298] | –
43 | 6% | – | CC1CC=C(c2ccc(=O)n(CC(=O)N3CCc4c(C5CNC5)cccc43)n2)CC1 (centres unmarked) [Example 299] | –
44 | 140% | – | CC1CC=C(c2ccc(=O)n(CC(=O)N3CCc4c(C5CN(C)C5)cccc43)n2)CC1 (centres unmarked) [Example 300] | –
45 | 410% | – | CC1CC=C(c2ccc(=O)n(CC(=O)N3CCc4c(C5CN(C6COC6)C5)cccc43)n2)CC1 (centres unmarked) [Example 301] | –
46 | 104% | – | CCN1CC(c2cccc3c2CCN3C(=O)Cn2nc(C3=CCC(C)CC3)ccc2=O)C1 (centres unmarked) [Example 302] | –
47 | 67% | – | CC1CC=C(c2ccc(=O)n(CC(=O)N3CCc4c(C5CN(CCO)C5)cccc43)n2)CC1 (centres unmarked) [Example 303] | –
48 | – | – | CC1CC=C(c2ccc(=O)n(CC(=O)N3CCc4c(C5CN(C(C)C)C5)cccc43)n2)CC1 (centres unmarked) [Example 304] | Nav1.1 current amplification rate (%) [1]: 167%
49 | 314% | – | CC1CC=C(c2ccc(=O)n(CC(=O)N3CCc4c(C5CN(C6CCOC6)C5)cccc43)n2)CC1 (centres unmarked) [Example 305] | –
50 | 532% | – | CC1CC=C(c2ccc(=O)n(CC(=O)N3CCc4c(C5CN(C(=O)C(C)(C)O)C5)cccc43)n2)CC1 (centres unmarked) [Example 306] | –
51 | 320% | – | CC1CC=C(c2ccc(=O)n(CC(=O)N3CCc4c(OCC(C)(C)O)cccc43)n2)CC1 (centres unmarked) [Example 307] | –
52 | – | – | COCCCN1CC2(CCN(C(=O)Cn3nc(C4=CCC(C)CC4)ccc3=O)C2)C1 (centres unmarked) [Example 308] | Nav1.1 current amplification rate (%) [4]: 9%
53 | – | 71% | COC1CCN(c2nccc3c2CCN3C(=O)Cn2nc(C3=CCC(C)CC3)ccc2=O)CC1 (centres unmarked) [Example 309] | –
54 | – | 87% | CC(=O)N1CC=C(c2nccc3c2CCN3C(=O)Cn2nc(C3=CCC(C)CC3)ccc2=O)C1 (centres unmarked) [Example 310] | –
55 | – | 265% | CC1CC=C(c2ccc(=O)n(CC(=O)N3CCc4c(-c5cn[nH]c5)cncc43)n2)CC1 (centres unmarked) [Example 311] | –
56 | – | 80% | CC1CC=C(c2ccc(=O)n(CC(=O)N3CCc4c(CNCC(F)F)cccc43)n2)CC1 (centres unmarked) [Example 312] | –
57 | – | 84% | CC1CC=C(c2ccc(=O)n(CC(=O)N3CCc4c(CNC5COC5)cccc43)n2)CC1 (centres unmarked) [Example 313] | –
58 | – | 9% | COCCNCc1cccc2c1CCN2C(=O)Cn1nc(C2=CCC(C)CC2)ccc1=O (centres unmarked) [Example 314] | –
59 | – | 19% | CC1CC=C(c2ccc(=O)n(CC(=O)N3CCc4c(CNC5CCC5)cccc43)n2)CC1 (centres unmarked) [Example 315] | –
